These results are taken from US6297230A, “Cyanoaziridines for treating cancer” (priority 2000, dated 2001).

One assay has as its system 8226/S myeloma cells. Nature of the assay: MTT growth inhibition, parental 8226 myeloma cells. Type of assay: cell-based, human. Here is the method: (§1) Microculture Tetrazolium (MTT) Assay for Tumor Cells
(§2) Tumors are disaggregated into single cell suspensions using mechanical, hypoosmotic, and/or enzymatic (trypsin) methods. The cells are plated at a concentration of 3-5×10^4 per […] well into plastic 96-well plates. Growth medium containing 5-10% (vol/vol) heat-inactivated fetal bovine serum and penicillin/streptomycin (both […]) are added prior to incubation at 37° C. for 6 days. Afterwards the medium containing the drug is removed, the cells are centrifuged in fresh medium or phosphate-buffered saline (pH 7.4). A tetrazolium dye, […]-2,5-diphenyl tetrazolium (MTT), is then added. (Mossman, T., J Immunol 65:55-63, 1983.) This dye forms a colored formazan product upon activation by mitochondrial reductases in viable cells. Typically, the formazan product is solubilized in acid-propanol or DMSO. The intensity of the color is proportional to viable cell numbers and this is quantitated by spectrophotometric absorbance at 570 nm on a micro ELISA plate reader. The results are calibrated in % control absorbance from untreated tumor cells. (Alley, et al., Cancer Res 48:589-601, 1988.)
(§3) The following unpublished studies were performed in vitro to develop and characterize a human myeloma cell line with resistance to imexon-induced cytotoxicity. The original (parental) 8226 cell line was developed by Matsuoka, et al. (Matsuoka, et al., Proc Soc Exp Biol Med 125:1246-1250, 1967). It is a lymphoblastoid cell line which stains for lambda light immunoglobulin production. It grows in vitro in suspension culture (non-adherent) and forms tumors when injected into SCID mice. (Skehan, et al., J Natl Cancer Inst 82:1107-1112, 1990.)
(§4) One exciting feature of our novel compounds is, that they work on imexon-resistant cells. An imexon-resistant 8226 myeloma cell line was selected by continuously exposing cells to gradually increasing concentrations of imexon up to 3.25 mg/mL. This cell line has slightly longer cell doubling time than 8226 sensitive cells (24 vs 20 hours). […] The dose response curve for imexon continuous exposure was determined using MTT assay. Each data point represents the mean of three experiments performed in 8 replicates.
(§5) We compared IC50 concentrations and there is a 4-fold resistance observed for the 8226/I-R cell line when the cells were continuously exposed to imexon for […] at 37° C. The degree of resistance was relatively unstable in the absence of the drug, with the resistant cells losing substantial resistance when maintained in imexon-free medium for 20 weeks (FIG. 2).
(§6) IC50 was measured by MTT assay. IC50 refer to the concentration by drug that results in 50% growth inhibition. A minimum of 2 assays were performed for each drug following 250 mg/mL imexon is equivalent to 6.5 cGy radiation in sensitive cells.
(§7) Using the colorimetric microculture tetrazolium (MTT) assay, imexon and 25-related analogs were studied for tumor growth inhibition in vitro. Imexon-induced DNA single strand breaks were assessed by alkaline elution. Cells were exposed to imexon for 1 hour prior to start of experiment. The fraction of ^14 C-labeled DNA retained on the filter is plotted against the time of elution. The cells included parental 8226 myeloma cells and the 8226 imexon-resistant cells exposed to drug (imexon or analog) continuously for 10 days at 37° C. At the end of the exposure period, the cells were analyzed for viability using the formazan-forming tetrazolium dye (MTT) assay.

The next assay concerns 8226/I-R myeloma cells. Nature of the assay: MTT growth inhibition, imexon-resistant 8226 myeloma cells. Type of assay: cell-based, human. The settings on record: for Cross-resistance of imexon-resistant cells: 8226 imexon-resistant cells; for Fold Resistance of IC50 R/IC50 's: imexon-resistant vs sensitive 8226. Here is the method:
as §1, §2, §3, §4, §5, §6, §7

In assay [1] the test system is OVCAR-3 ovarian carcinoma cells. The note with it: clinically relevant concentrations in vitro; cited from earlier work.
Assay [2] relates to L-1210 MDR leukemia cells. The settings on record: cited from earlier work.
The test system of a further assay is WiDr MITOX cells. The note with it: cited from earlier work.
Assay [3] has as its system L-1210 MDR leukemia cells. Nature of the assay: MTT growth inhibition, multidrug-resistant L-1210 leukemia cells. Type of assay: cell-based, mouse. The settings on record: for IC50: Mus musculus, L1210, 192 h. Here is the method: as §2
In addition, the imexon analogs have also been tested in a multidrug-resistant (MDR) mouse L-1210 leukemia cell line.
L-1210 MDR Cells represent a multidrug-resistant cell line developed for resistance to the alkylating agent mitomycin C. (Dorr, et al., Biochem Pharmacol 36(19):3115-3120, 1987.) This cell line has the same general growth characteristics of the parental line, but is cross-resistant to numerous natural-product based anticancer agents. This includes anthracyclines such as doxorubicin (Adriamycin®) and vinca alkaloids such as vincristine or vinblastine.
(§8) *Drug continuously present for 8 days; IC50 measured by MTT dye

Assay [4] has as its system L-1210 leukemia cells (sensitive). Kind of assay: MTT growth inhibition, sensitive L-1210 leukemia cells. It counts as cell-based, mouse. The note with it: Mus musculus, L1210, 192 h. Here is the method: as §2, with “1988.) […]” for “1988.)”
Murine L-1210 Leukemia Cells were first described by Law, et al. from a female DBA/2 mouse exposed to topical methylcholanthrene. (Law, et al., J Natl Cancer Inst 10:179-192, 1949.) The cells represent a lymphocytic lineage and are highly tumorigenic in syngeneic DBA/2 mice, producing lethality typically 10-14 days after inoculation. This cell line has been used extensively to characterize the antitumor activity of chemotherapeutic agents. (Goldin, et al., Cancer Res (Cancer Chemotherapy Screening Data IX) 21:27-92, 1961.) The L-1210 cells have a model 40-41 chromosomes and a very high plating efficiency in suspension cultures in vitro.
as §8

Where [5] appears, read: Homo sapiens, 8226/S, MTT, read-out: IC50.
Setting [6] is: Homo sapiens, 8226/I-R, MTT, read-out: IC50.
The mark [7] stands for this setting: Homo sapiens, Table 5, Sensitive (parental) 8226, read-out: IC50.
Setting [8] is: Homo sapiens, Table 5, imexon-resistant 8226, read-out: IC50.

Values after ≈ are worked out from the molar mass of the structure shown. Where two headings read alike, the source gives them in different places.

Take Bleomycin [reference compound]: the IC50 (in general, the midpoint of a concentration-inhibition curve) with 8226/S myeloma cells (8226/S, MTT, bleomycin) was 7.0 µg/mL; with 8226/I-R myeloma cells (8226/I-R, MTT, bleomycin), 7.8 µg/mL. Moreover, in the assay with 8226/I-R myeloma cells (MTT), the “Cross-resistance of imexon-resistant cells” value is listed as “remains sensitive”. For the same molecule, the “Fold Resistance (IC50 resistant cells/IC50 sensitive cells)” value in the assay on 8226/I-R myeloma cells (Table 4, 8226/I-R vs 8226/S) amounted to 1.11.
With `N[C@@H](Cc1ccc(N(CCCl)CCCl)cc1)C(=O)O` [Melphalan, reference compound], the IC50 with 8226/S myeloma cells (Homo sapiens) was found to be 62 nM; in the assay on 8226/I-R myeloma cells (Homo sapiens), 5300 nM. Also, the “Fold Resistance (IC50 resistant cells/IC50 sensitive cells)” value in the assay with 8226/I-R myeloma cells (Table 4, 8226/I-R vs 8226/S) is on record as 0.81. Further, in assay [1], the “Resistance of OVCAR-3” value is recorded as “resistant in vitro to clinically relevant concentrations”.
For the molecule `CC[C@]1(O)C[C@H]2CN(CCc3c([nH]c4ccccc34)[C@@](C(=O)OC)(c3cc4c(cc3OC)N(C=O)[C@H]3[C@@](O)(C(=O)OC)[C@H](OC(C)=O)[C@]5(CC)C=CCN6CC[C@]43[C@@H]65)C2)C1` [Vincristine, reference compound], the “Cross-resistance of L-1210 MDR” value in assay [2] is “cross-resistant”. Moreover, the figures for the IC50 in the assay on 8226/S myeloma cells (setting [5]) and in the assay with 8226/I-R myeloma cells (setting [6]) were 2.8 nM and 2.4 nM, respectively. In addition, in the assay with 8226/I-R myeloma cells (MTT), the “Cross-resistance of imexon-resistant cells” value is “remains sensitive”. In addition, in the assay with 8226/I-R myeloma cells (Table 4, 8226/I-R vs 8226/S), the “Fold Resistance (IC50 resistant cells/IC50 sensitive cells)” value is recorded as 0.88. Moreover, the “Fold resistance of WiDr MITOX cells” value in the assay with WiDr MITOX cells is on record as 2 fold.
As to `CO[C@@]12[C@H](COC(N)=O)C3=C(C(=O)C(C)=C(N)C3=O)N1C[C@@H]1N[C@@H]12` [Mitomycin C, reference compound], the results for the IC50 with 8226/S myeloma cells (setting [5]) and with 8226/I-R myeloma cells (setting [6]) were 66 nM and 99 nM, respectively. For the same molecule, the “Cross-resistance of imexon-resistant cells” value in the assay with 8226/I-R myeloma cells (MTT) is “partial resistance”. Also, in the assay with 8226/I-R myeloma cells (human, 8226 myeloma cells), the “Fold Resistance (IC50 resistant cells/IC50 sensitive cells)” value is on record as 1.50.
For the molecule `N#CC1CN1C(N)=O` (centres unmarked) [AMP 409, 2-cyanoaziridine-1-carboxamide, reference compound], the IC50 in assay [3] is above 10 µg/mL; with 8226/S myeloma cells (setting [7]), 32 µg/mL; in the assay with 8226/I-R myeloma cells (setting [8]), 48 µg/mL; in assay [4] it was above 10 µg/mL. In the assay on 8226/I-R myeloma cells (Table 5), the “Fold Resistance of IC50 R/IC50 's” value came to 1.5.
For `O=C1c2c(O)ccc(O)c2C(=O)c2c(NCCNCCO)ccc(NCCNCCO)c21` [mitoxantrone], the “Fold resistance of WiDr MITOX cells” value with WiDr MITOX cells is reported as 21 fold.
For `N#CC1CN1C(=O)Nc1ccc(Cl)c(Cl)c1` (centres unmarked) [AMP 408, 2-Cyanoaziridine-1-[N-(3,4-dichlorophenyl)]carboxamide], the “Fold Resistance of IC50 's (MDR/S)” value in assay [3] (L-1210 MDR vs sensitive, 11520 min) turned out to be 2.7. Besides, the IC50 is 1.9 µg/mL (≈ 7.42 µM) in assay [3] (MDR L-1210, drug continuously present 8 days, read-out: IC50); 0.27 µg/mL in the assay on 8226/S myeloma cells (setting [7]); 0.68 µg/mL with 8226/I-R myeloma cells (setting [8]); 0.7 µg/mL (≈ 2.73 µM) in assay [4] (Sensitive L-1210, drug continuously present 8 days, read-out: IC50). In addition, in the assay on 8226/S myeloma cells (compared with imexon), the “Enhanced potency: decrease in IC50 against myeloma cell growth” value is given as above 40%. The “Fold Resistance of IC50 R/IC50 's” value in the assay with 8226/I-R myeloma cells (Table 5) was 2.5.
For the molecule `N.N.[Cl][Pt][Cl]` [Cisplatin, reference compound], the IC50 in the assay on 8226/S myeloma cells (8226/S, MTT, read-out: IC50) amounted to 1100 nM; in the assay with 8226/I-R myeloma cells (8226/I-R, MTT, read-out: IC50), 2000 nM. Besides, in the assay with 8226/I-R myeloma cells (MTT), the “Cross-resistance of imexon-resistant cells” value was “partial cross-resistance”. Besides, in the assay with 8226/I-R myeloma cells (Table 4, 8226/I-R vs 8226/S), the “Fold Resistance (IC50 resistant cells/IC50 sensitive cells)” value amounted to 1.85. For the same molecule, the “Resistance of OVCAR-3” value in assay [1] is given as “resistant in vitro to clinically relevant concentrations”.
Regarding `CC[C@]1(O)C[C@@H]2CN(CCc3c([nH]c4ccccc34)[C@@](C(=O)OC)(c3cc4c(cc3OC)N(C)[C@H]3[C@@](O)(C(=O)OC)[C@H](OC(C)=O)[C@]5(CC)C=CCN6CC[C@]43[C@@H]65)C2)C1` [vinblastine], the “Cross-resistance of L-1210 MDR” value in assay [2] was “cross-resistant”.
Take `N.N.O=C([O-])C1(C(=O)[O-])CCC1.[Pt+2]` [Carboplatin, reference compound]: the IC50 in the assay on 8226/S myeloma cells (8226/S, MTT, read-out: IC50) worked out at 9700 nM; with 8226/I-R myeloma cells (8226/I-R, MTT, read-out: IC50), 16000 nM. The “Cross-resistance of imexon-resistant cells” value in the assay with 8226/I-R myeloma cells (MTT) was “partial cross-resistance”. Also, the “Fold Resistance (IC50 resistant cells/IC50 sensitive cells)” value in the assay with 8226/I-R myeloma cells (Table 4, 8226/I-R vs 8226/S) is 1.65.
